Reference: patent publication US20050101674A1, “PPMP as a ceramide catabolism inhibitor for cancer treatment” (priority 2003, published 2005)
Read-outs that look alike come from different tables or passages of the source.

Tests used:
[1] = test system: solid tumor and ALL cell lines; experiment: Effect of de novo ceramide synthesis inhibitors on 4-HPR-induced ceramide; type: cell-based; settings: in vitro
Text: (§1) We have determined in solid tumor and ALL cell lines in vitro, that the ceramide increased by 4-HPR treatment was derived from de novo synthesis.

neuroblastoma cell lines = experiment: Toxicity of de novo ceramide synthesis inhibitors to neuroblastoma cell lines; type: cell-based
[2] = test system: SK-N-RA neuroblastoma cells; experiment: Ceramide and glucosylceramide levels by [3H]-palmitic acid labeling and thin-layer chromatography, SK-N-RA; type: cell-based; settings: for 4-HPR-induced ceramide level / 4-HPR-induced glucosylceramide level: with 4-HPR 10 μM; for 4-HPR-induced glycosylceramide increase: FIG. 9 right panel
Protocol: Assays were performed at +24 h.
SK-N-RA neuroblastoma cells were exposed to drugs at 10 μM concentrations for the time indicated.

[3] = in vivo; cited from earlier work
[4] = rodents, x 10 days; cited from earlier work
[5] = test system: Ehrlich ascites tumor cells xenografts; settings: in vivo; cited from earlier work
intact cells = settings: in intact cells; cited from earlier work
NALM-6 = experiment: DIMSCAN cytotoxicity, ALL cell line NALM-6; type: cell-based; settings: NALM-6, 4-HPR+PPMP 1:1 molar ratio, +96 hours
Text: (§2) In the following examples, the DIMSCAN assay is a cell survival assay, not merely an apoptosis assay, and therefore reflects cancer cell killing due to both apoptosis and necrosis. DIMSCAN correlates directly with more traditional clonogenic assays. Moreover, DIMSCAN drug resistance profiles of cell lines correlate with prior patient therapy. DIMSCAN has successfully predicted clinical activity in high-risk neuroblastoma patients for the following new agents: 13-cis-retinoic acid, BSO+L-PAM, and fenretinide. Cytotoxicity assays are performed in 96 well microplates using a semi automated Digital Image Microscopy (DIMSCAN) system that has a dynamic range of greater than 4-5 logs of cell kill. Briefly, following incubation with study drugs, fluorescein diacetate [10 μg/ml (a vital stain)] is added to the microplate and incubated for twenty minutes. Eosin-Y (800 μg/ml) is then added to quench background fluorescence in the medium and non-viable cells. The plates are then read on an inverted microscope with the relative fluorescence of each well determined by the video imaging system software designed for the DIMSCAN system. We have done comparison studies and have shown that the relative fluorescent values obtained by DIMSCAN correlate to cell density (standard counts by trypan blue exclusion) and clonogenicity assays. […]

CEM = experiment: DIMSCAN cytotoxicity, ALL cell line CEM; type: cell-based; settings: 4-HPR+PPMP 1:1 molar ratio, +96 hours
Text: as §2

NALL-1 = experiment: DIMSCAN cytotoxicity, ALL cell line NALL-1; type: cell-based; settings: 4-HPR+PPMP 1:1, +96 hours
Text: (§3) In the following examples, the DIMSCAN assay is a cell survival assay, not merely an apoptosis assay, and therefore reflects cancer cell killing due to both apoptosis and necrosis. DIMSCAN correlates directly with more traditional clonogenic assays. Moreover, DIMSCAN drug resistance profiles of cell lines correlate with prior patient therapy. DIMSCAN has successfully predicted clinical activity in high-risk neuroblastoma patients for the following new agents: 13-cis-retinoic acid, BSO+L-PAM, and fenretinide. Cytotoxicity assays are performed in 96 well microplates using a semi automated Digital Image Microscopy (DIMSCAN) system that has a dynamic range of greater than 4-5 logs of cell kill. Briefly, following incubation with study drugs, fluorescein diacetate [10 μg/ml (a vital stain)] is added to the microplate and incubated for twenty minutes. Eosin-Y (800 μg/ml) is then added to quench background fluorescence in the medium and non-viable cells. The plates are then read on an inverted microscope with the relative fluorescence of each well determined by the video imaging system software designed for the DIMSCAN system. We have done comparison studies and have shown that the relative fluorescent values obtained by DIMSCAN correlate to cell density (standard counts by trypan blue exclusion) and clonogenicity assays. The present invention is explained in greater detail in the following non-limiting examples.
(§4) Assayed by DIMSCAN at +96 hours. •=4-HPR; ▪=PPMP; □=4-HPR+PPMP; (1:1 molar ratio).

ALL cell lines = experiment: Glucosylceramide and ceramide in ALL cell lines; settings: ALL cell lines examined
[6] = test system: six pediatric ALL cell lines; experiment: 4-HPR and D,L-threo-PPMP cytotoxicity in ALL cell line panel; type: cell-based
MOLT-3 = experiment: DIMSCAN cytotoxicity, ALL cell line MOLT-3; type: cell-based; settings: MOLT-3, 4-HPR+PPMP 1:1 molar ratio, +96 hours
Text: as §2

SMS-SB = experiment: DIMSCAN cytotoxicity, ALL cell line SMS-SB; type: cell-based; settings: 4-HPR+PPMP 1:1, +96 hours
Text: as §3, §4

[7] = test system: SK-N-RA neuroblastoma cells; experiment: DIMSCAN cytotoxicity assay in SK-N-RA cells; type: cell-based; settings: combined with 4-HPR, +96 h
Text: as §2, with “system.” for “system. We have done comparison studies and have shown that the relative fluorescent values obtained by DIMSCAN correlate to cell density (standard counts by trypan blue exclusion) and clonogenicity assays.”
Survival fraction was measured using a digital imaging fluorescence-based microscopy assay (DIMSCAN) with approximately 5 log sensitivity. […]

MOLT-4 = experiment: DIMSCAN cytotoxicity, ALL cell line MOLT-4; type: cell-based; settings: MOLT-4, 4-HPR+PPMP 1:1 molar ratio, +96 hours
Text: as §2

[8] = test system: MCF-7/tet breast cancer cells
Protocol: MCF-7/tet breast cancer cells exposed to ethanol (controls), 4-HPR(H) or 4-HPR+safingol (3:1 ratio)(H+S), without or with preincubation with L-cycloserine (2 mM)(+C) and assayed by DIMSCAN assay at +96 hrs. 4-HPR (•); 4-HPR/L-cycloserine (O); 4-HPR/safingol (3:1)(▾); 4-HPR/safingol/L-cycloserine (∇); L-cycloserine (2 mM) (□).

[9] = test system: PC-3 prostate cancer cells; experiment: DIMSCAN cytotoxicity assay in PC-3 cells; type: cell-based; settings: PC-3, combined with 4-HPR, +96 h
Text: as §2

[10] = test system: PC-3 prostate cancer cells; experiment: Ceramide by [3H]-palmitic acid labeling and thin-layer chromatography, PC-3; settings: PC-3, drug 10 μM, +24 h
Protocol: Lipids were assayed by labeling with [^3H]-palmitic acid and thin-layer chromatography at +24 h. […] Synergy assayed by Combination Index (C.I.): synergy, C.I.<1; additive, C.I.=1; antagonism, C.I.>1. Statistical analysis is by student's t-test.

[11] = test system: human neuroblastoma murine xenograft; experiment: Human neuroblastoma murine xenograft models; type: in vivo; settings: combined with 4-HPR
[12] = Continuous venous infusion (c.i.v.) of 4-HPR in rats; type: in vivo
Text: Utilizing intravenous formulations, we have directly tested continuous venous infusion (c.i.v.) in rats. […] Accordingly, the anti-tumor activity of 4-HPR will be increased by other agents which modulate the metabolism of ceramide, such as inhibitors of glucosylceramide synthase and 1-O-acylceramide synthase.

[13] = test system: normal fibroblasts, peripheral blood mononuclear cells, EBV-immortalized lymphoid cell line; experiment: 4-HPR ceramide in normal and non-transformed cells; type: cell-based; settings: in vitro
Text: Accordingly, the ability of 4-HPR to increase ceramide by de novo synthesis is most likely a malignancy (transformed phenotype)-specific event. Further, high-dose 4-HPR will have a favorable therapeutic index in vivo. Moreover, second agents that inhibit ceramide catabolism will also have a favorable therapeutic index in combination with 4-HPR, as normal tissues will not increase ceramide in response to 4-HPR.

[14] = test system: two neuroblastoma cell lines; experiment: Reactive oxygen species in neuroblastoma cell lines; type: cell-based
Text: (§5) 4-HPR has been reported to increase Reactive Oxygen Species (ROS) in certain, but not all, solid tumor cell lines and leukemia cell lines in vitro as a mechanism of cytotoxicity. […] We, therefore, have explored alternative mechanisms of 4-HPR cytotoxicity.

[15] = test system: cell lines of neuroblastoma, PNET/Ewing's sarcoma, breast and lung cancer; experiment: 4-HPR ceramide increase in tumor cell lines; type: cell-based
Text: as §5

ceramide synthase = experiment: Direct assay of enzymatic activity, ceramide synthase; type: biochemical
Text: as §1

[16] = low-dose 4-HPR; cited from earlier work
[17] = test system: serine palmitoyltransferase; experiment: Direct assay of enzymatic activity, serine palmitoyltransferase; type: biochemical
Text: as §1

[18] = test system: normal fibroblasts, bone marrow myeloid progenitors, peripheral blood mononuclear cells, EBV-immortalized lymphoblastoid cell line; experiment: 4-HPR cytotoxicity in normal and non-malignant cells; type: cell-based; settings: doses cytotoxic to cancer cell lines in vitro
Text: Having established the potential of high-dose 4-HPR to treat resistant neuroblastoma, in order to investigate the therapeutic index of 4-HPR, we examined the cytotoxicity of 4-HPR in normal and non-malignant cell lines in vitro. […] Accordingly, 4-HPR cytotoxicity is most likely a malignancy-specific event, and high-dose 4-HPR may have an acceptable therapeutic index in vivo.

[19] = Plasma levels after intravenous formulations of 4-HPR; type: in vivo
[20] = pediatrics, oral, cited from earlier work
[21] = test system: variety of cancer cell lines; settings: cancer cell lines in vitro; cited from earlier work
[22] = adults, high-dose oral; cited from earlier work

Compound: fumonisin B
- effect on ceramide increase caused by 4-HPR treatment [1]: prevented the increase of ceramide
- toxicity as single agents (neuroblastoma cell lines): proved toxic of themselves

Compound: CCCCCCCCCCCCCCCC(=O)NC(CN1CCOCC1)C(O)c1ccccc1 [D,L-erythro-PPMP]
- 4-HPR-induced ceramide level ([2]; +24 h): further increased
- 4-HPR-induced glucosylceramide level ([2]; +24 h): did not affect

Compound: CCCCCCCCCC(=O)NC(CN1CCOCC1)C(O)c1ccccc1 (stereo not drawn) [PDMP, 1-phenyl-2-[decanoylamino]-3; morpholino-1-propanol]
- half-life [3]: approximately 1 hour
- well tolerated dose [4]: ≤ 120 mg/kg/day
- anti-tumor effect [5]: cures

Compound: CCCCCCCCCCCCCCCC(=O)N[C@@H](CN1CCOCC1)[C@@H](O)c1ccccc1 [L-threo-PPMP]
- 4-HPR-induced glycosylceramide increase ([2]; drugs at 10 μM, preliminary): did not

Compound: CCCCCCCCCCCCCCCC(=O)NC(CN1CCOCC1)C(O)c1ccccc1 [D,L-threo-PPMP, D,L-threo-(1-phenyl-2-hexadecanoylamino-3-morpholino-1-propanol)]
- activity relative to PDMP (intact cells): 10-20 times
- Combination Index (C.I.) (NALM-6): < 1
- Combination Index (C.I.) (CEM): 1
- Combination Index (C.I.) (NALL-1; NALL-1, 3 μM): > 1
- Combination Index (C.I.) (NALL-1; NALL-1, 6 μM): 1
- Combination Index (C.I.) (NALL-1; NALL-1, 9 μM): < 1
- ceramide (ALL cell lines): increased ceramide
- glucosylceramide formation (ALL cell lines): decreased glucosylceramide formation
- number of ALL cell lines in which 4-HPR cytotoxicity was synergized ([6]; pediatric ALL cell lines): four of six
- Combination Index (C.I.) (MOLT-3): < 1
- Combination Index (C.I.) (SMS-SB; 3 μM): > 1
- Combination Index (C.I.) (SMS-SB; 6 μM): > 1
- Combination Index (C.I.) (SMS-SB; 9 μM): 1
- synergy of 4-HPR cytotoxicity (in words) [7]: more potently
- 4-HPR-induced ceramide level ([2]; +24 h): even more strongly increased
- 4-HPR-induced glucosylceramide level ([2]; +24 h): prevented glucosylceramide formation
- Combination Index (C.I.) (MOLT-4): < 1

Compound: N[C@H]1CONC1=O [L-cycloserine]
- effect on ceramide increase caused by 4-HPR treatment [1]: prevented the increase of ceramide
- effect on 4-HPR-induced ceramide [8]: prevented ceramide increase
- toxicity as single agents (neuroblastoma cell lines): proved toxic of themselves

Compound: CCCCCCCCCCCCCCCC(=O)NC(CN1CCOCC1)C(O)c1ccccc1 (single isomer, unassigned) [D-threo-PPMP, D-threo-stereoisomer of 1-phenyl-2-palmitoylamino-3-morpholino-1-propanol]
- synergy of 4-HPR cytotoxicity (in words) [7]: synergizes 4-HPR cytotoxicity more potently than does L-threo-PPMP
- Combination Index (C.I.) of cytotoxic synergy with 4-HPR [9]: < 1
- 4-HPR-induced ceramide ([2]; drugs at 10 μM, FIG. 9 left panel, preliminary): increased 4-HPR-induced ceramide more than did L-threo-PPMP
- 4-HPR-induced glycosylceramide increase ([2]; drugs at 10 μM, preliminary): prevented
- ceramide in 4-HPR-treated cells [10]: increased ceramide

Compound: CCCCCCCCCCCCCCC[C@H](O)[C@@H](N)CO [safingol, L-threo-dihydrosphingosine]
- effect on anti-tumor activity of 4-HPR [11]: significantly increase the anti-tumor activity of 4-HPR

Compound: CC1=C(/C=C/C(C)=C/C=C/C(C)=C/C(=O)Nc2ccc(O)cc2)C(C)(C)CCC1 [4-HPR, N-(4-hydroxyphenyl)retinamide]
- levels of 4-HPR in plasma and tissues [12]: high, sustained levels
- ceramide in normal and non-transformed cells [13]: only minimally increased ceramide
- Reactive Oxygen Species (ROS) [14]: increased ROS
- increase of ceramide ([15]; dose- and time-dependent, in vitro, 'up to'): up to 13 fold
- time at which ceramide increase began ([15]; post exposure): less than 2 hrs
- ceramide synthase activity (ceramide synthase): stimulated the activities
- reduction in premalignant oral lesions (leukoplakia) [16]: 30%
- serine palmitoyltransferase activity [17]: stimulated the activities
- toxicity to normal and non-malignant cells [18]: minimally toxic
- systemic toxicity ([19]; dog, in vivo, iv): minimal systemic toxicity
- 4-HPR plasma levels ([19]; intravenous formulations, rodent and canine models): 50 to 150 µM
- maximally tolerated dose (MTD) ([20]; 7 days every 3 weeks): 2475 mg/m^2/day
- systemic toxicity ([20]; at MTD): minimal systemic toxicity
- 4-HPR cytotoxicity ([6]; all six tested ALL cell lines in vitro): multi-log cytotoxicity
- 4-HPR concentrations that are cytotoxic [21]: 1 to 12 µM
- recommended 'practical' dose for Phase II studies [22]: 1800 mg/m^2/day
- ceramide level ([2]; 4-HPR 10 μM alone, +24 h): modestly increased
